# In patent publication US20130045267A1, “METHODS OF USING AGENTS THAT MODULATE CLAUDIN EXPRESSION” (priority 2010, published 2013):
# B1: IL-4: human IL-4 (R&D system), Th2 cytokine (protein, UniProt P05112 25-153, looked up)
# Interleukin-4: HKCDITLQEIIKTLNSLTEQKTLCTELTVTDIFAASKNTTEKETFCRAATVLRQFYSHHEKDTRCLGATAQQFHRHKQLIRFLKRLDRNLWGLAGLNSCPVKEANQSTLENFLERLKTIMREKYSKCSS
# Columns and labels:
# [1] = test system: claudin-1; assay: Western blot of claudin-1 protein in primary human keratinocytes; format: cell-based; conditions: 50 ng/ml; for claudin-1 expression over control: 48 hours, differentiating PHK, n=3; for claudin-1 expression by Western blot: PHK differentiated 48 h
# Method: Human keratinocytes were isolated from neonatal foreskin. Poumay et al., “Basal Detachment of the Epidermis Using Dispase: Tissue Spatial Organization and Fate of Integrin Alpha 6 Beta 4 and Hemidesmosomes,” J. Invest. Dermatol. 102:111-7 (1994), which is hereby incorporated by reference in its entirety. PHK were cultured in Keratinocyte-SFM (Invitrogen/Gibco) with 1% Pen/Strep, 0.2% Amphotericin B (Invitrogen/Gibco). To differentiate PHK, cells were grown in DMEM (Invitrogen/Gibco) with 10% heat-inactivated fetal bovine serum (Invitrogen/Gibco) and 1% Pen/Strep, 0.2% Amphotericin B (Invitrogen/Gibco). For TJ modulation experiments, the following cytokines were added alone or in combination to the differentiation media; human IL-4 (50 ng/ml; R&D system) and IL-13 (50 ng/ml; R&D system).
# PHK were lysed on ice in RIPA lysis buffer (20 mM Tris, 50 mM NaCl, 2 mM EDTA, 2 mM EGTA, 1% sodium deoxycholate, 1% TX-100, and 2% SDS, pH 7.4), with 1:100 Protease Inhibitor Cocktail (Sigma), 1:100 Phosphatase Inhibitor Cocktail ([…] for 30 min at 4° C. The samples were heated at 95° C. for 10 min and then centrifuged at 14,000 rpm for 15 min. Forty μg of protein, determined by BCA (Pierce) in NuPage LDS Sample Buffer (Invitrogen) was applied to 4-12% NuPage Bis-Tris gels (Invitrogen). Electrophoresis was performed under reducing conditions with MES SDS Buffer (Invitrogen). Membranes were incubated in blotting solution (5% non-fat dry milk in PBS+0.05% Tween 20) at RT for 1 h and then incubated with primary antibodies; claudin-1 (JAY.8; Zymed), occludin (OC/3F10; Zymed) and GAPDH (FL-355; Santa Cruz). An HRP-linked secondary antibody (GE Healthcare) was used with ECL (GE Healthcare) to visualize bands by autoradiography with Kodak BioMax MR film. The pixel intensity of each band was estimated with Image J.
# (§1) PHK were plated on glass coverslips at 2-3×10^5 cells/well in a 6-well plate or at 2-3×10^4 cells/filter in Transwell insert (Costar; PET membrane, 0.4 μm pore size, 6.5 mm insert) in Keratinocyte-SFM without antibiotics. The next day after plating, cells were transfected with claudin-1 specific or control (scrambled) siRNAs (Santa Cruz) using Lipofectamine™ 2000 transfection Reagent (Invitrogen). TEER and permeability experiments were conducted 48 hours after PHK were switched to differentiation media.
# [2] = test system: primary human keratinocytes (PHK); assay: Trans Epithelial Electric Resistance (TEER) in PHK monolayers; format: cell-based
# Method: PHK were plated at a subconfluent density of 2.5−3×10^4 cells/filter in Transwell insert and cultured in Keratinocyte-SFM media until confluent. TEER was measured using an EVOMX voltohmmeter (World Precision Instruments, Sarasota, Fla.). The resistance of cell-free filters was subtracted from each experimental value.
# as §1
# TEER was measured in PHK as described above. PHK were stimulated with S. aureus-derived peptidoglycan (PGN, 0.2-20 μg/ml, n=3-7) (FIG. 19A), Malp-2 (10-1000 ng/ml, n=3) (FIG. 19B), and Pam3CSK4 a TLR1/2 ligand (0.01-20 μg/ml, n=3-6) (FIG. 19C). Data are presented by analyzing the area under the TEER curve and normalized to the mean values for the control group (media alone)*p<0.05; **p<0.01.
# [3] = test system: occludin and ZO-1; assay: Expression of occludin and ZO-1 in PHK differentiated with Th2 cytokines; format: cell-based, human; conditions: PHK differentiated with cytokine
# Method: Human keratinocytes were isolated from neonatal foreskin. Poumay et al., “Basal Detachment of the Epidermis Using Dispase: Tissue Spatial Organization and Fate of Integrin Alpha 6 Beta 4 and Hemidesmosomes,” J. Invest. Dermatol. 102:111-7 (1994), which is hereby incorporated by reference in its entirety. PHK were cultured in Keratinocyte-SFM (Invitrogen/Gibco) with 1% Pen/Strep, 0.2% Amphotericin B (Invitrogen/Gibco). To differentiate PHK, cells were grown in DMEM (Invitrogen/Gibco) with 10% heat-inactivated fetal bovine serum (Invitrogen/Gibco) and 1% Pen/Strep, 0.2% Amphotericin B (Invitrogen/Gibco). For TJ modulation experiments, the following cytokines were added alone or in combination to the differentiation media; human IL-4 (50 ng/ml; R&D system) and IL-13 (50 ng/ml; R&D system). […]
# Previous studies have shown that claudin-1 expression in noncutaneous epithelial cells can be modulated by cytokines and growth factors. […] To test this possibility, PHK were differentiated in the presence or absence of Th2 cytokines, IL-4 and IL-13, and the expression of claudin-1, occludin and ZO-1 was evaluated. […]
# [4] = test system: human epidermis sheet; assay: TEER in human epidermal sheets (snap-well system); conditions: 1 mM; for TEER, dmem + SC_1 / TEER, dmem + SC_2 / TEER, mean SC: T0 = 1.00
# Description: Epidermal sheets were obtained from discarded human skin using a weck blade (0.08 inch). Epidermal samples were mounted in an adapted snap-well system (Pierro et al., “Zonula Occludens Toxin Structure-Function Analysis, Identification of the Fragment Biologically Active on Tight Junctions and of the Zonulin Receptor Binding Domain,” J. Biol.
# [5] = test system: human cultured keratinocytes and reconstructed human epidermis; conditions: literature (Kurasawa et al. 2009); cited from earlier work
# [6] = test system: occludin mRNA; assay: qPCR of occludin mRNA in PHK treated with PPARγ agonist; format: cell-based, human; conditions: 5 μM, PHK differentiated in high Calcium media (DMEM) 24 h
# Method: (§2) PHK were differentiated in high Calcium media (DMEM) in the presence of CIG 5 μM in DMSO or media with equivalent amount of DMSO alone, for 24 h. Total RNA was extracted from PHK using the QlAshredder spin column (Qiagen) and RNeasy RNA isolation kits (Qiagen). The quality of total RNA samples (RNA Integrity Number, RIN) was assessed using an Agilent 2100 Bioanalyzer (Agilent Technologies, Palo Alto, Calif.).
# (§3) qPCR was performed using the iScript™ cDNA Synthesis kit and iQ™ SYBER Green Supermix assay system (Bio-Rad Laboratories). All PCR amplifications were carried out in triplicate on an iQ5 Multicolor real-time PCR detection system (Bio-Rad). Primers were designed and synthesized by Integrated DNA Technologies. Relative gene expression was calculated by using the 2^−ΔΔCt method, as previously described. The normalized Ct value of each sample was calculated using GAPDH as an endogenous control gene.
# [7] = test system: CLDN1 mRNA; assay: qPCR of CLDN1 mRNA in PHK treated with PPARγ agonist; format: cell-based, human; conditions: 5 μM, PHK differentiated in high Calcium media (DMEM) 24 h
# Method: as §2, §3
molecule,measurement,setting,value
"IL-13: human IL-13 (R&D system), Th2 cytokine",claudin-1 expression over control,[1],1.6±0.3 fold
same,claudin-1 expression by Western blot,[1],enhanced expression of claudin-1
same,"TEER, dose response","[2]; 0.5-100 ng/ml, PHK",only a slight increase in TEER
same,expression of occludin and ZO-1,[3],no effect
Pam3CSK4 [reference compound],tight junction function (area under the TEER curve normalized to media alone),"[2]; PGN 0.2-20 μg/ml, Malp-2 10-1000 ng/ml, Pam3CSK4 0.01-20 μg/ml",increase tight junction function
"CCCCCCCCCC(=O)[O-].[Na+] [SC, Sodium Decanoate]","TEER, dmem + SC_1",[4]; 4 h,0.79
same,"TEER, dmem + SC_2",[4]; 4 h,0.69
same,"TEER, mean SC",[4]; 4 h,0.74
same,"TEER, dmem + SC_1",[4]; 24 h,0.56
same,"TEER, dmem + SC_2",[4]; 24 h,0.51
same,"TEER, mean SC",[4]; 24 h,0.54
same,TEER over media alone,[4]; after 4 hours of treatment,0.74 fold
same,TEER over media alone,[4]; after 24 hours,0.54 fold
same,paracellular permeability,[5],increased paracellular permeability
same,transepithelial electrical resistance,[5],decreased transepithelial electrical resistance
CC1(COc2ccc(CC3SC(=O)NC3=O)cc2)CCCCC1 (stereo not shown) [ciglitazone],occludin mRNA expression,[6],2.0 fold
same,occludin mRNA expression,[6]; listed as CIG,2 fold
same,CLDN1 mRNA expression over DMSO alone,[7],1.7 fold
B1,claudin-1 expression over control,[1],2.1±0.4 fold
same,claudin-1 expression by Western blot,[1],enhanced expression of claudin-1
same,TEER peak,"[2]; 50 ng/ml, PHK, n=4",166±24 Ohms×cm^2
same,expression of occludin and ZO-1,[3],no effect
